The values below come from PMC3458928, “Co-Factor Binding Confers Substrate Specificity to Xylose Reductase from Debaryomyces hansenii” (PLoS ONE, 2012).

Where “and” joins values, the source holds several entries; their conditions need not be identical. Identical values can stand only once. Like-named read-outs stand apart in the source and are kept apart here.

Experiment [1] has as its target apo-DhXR (wild type xylose reductase) (Debaryomyces hansenii, UniProt Q6BLI9). Nature of the experiment: Tryptophan fluorescence quenching titration, ligand binding to apo-DhXR wild type. Particulars: for Kd: 25 °C. On the procedure:
(§1) Titrations of DhXR with ligands were examined by monitoring the intrinsic tryptophan fluorescence of DhXR using a Varian spectrofluorometer. Experiments were performed in indicated buffers as mentioned in the text. The excitation wavelength and emission wavelengths for monitoring DhXR-ligand interaction were 292 nm and 345 nm respectively. Slit widths were set to 5 nm for all experiments and PMT voltage was adjusted to get maximum signal for a given protein concentration. All experiments were done at 25.0±1°C. Initial readings of both the protein, Fprotein,0 and buffer, Fbuff,0 were taken, with F0 = Fprotein,0–Fbuff,0 defined as the initial fluorescence of the sample. The sample cuvette was then titrated with aliquots of ligands and mixed, and equilibrated for 3–4 minutes before measurement. Data points from five such measurements were averaged to obtain Fave,i. The relative fluorescence quenching upon sugar binding is defined as Qobs,i = (F0–Fave,i)/F0. All measurements were corrected for dilution, and inner filter effects.
(§2) Binding of ligands to DhXR was analyzed using two site binding model. [drawing 1] (1) where Q1 and Q2 are the fluorescence quenching corresponding to one and two ligands bound, respectively; L is concentration of free ligand in solution; K1,obs and K2,obs are association constants for the binding of the first and the second ligand molecule. Errors were calculated from fitting analysis of two independent experiments.
We examined the binding of D-xylose, xylitol, and NADPH to apo-DhXR. Quenching of tryptophan fluorescence upon ligand binding was used as the signal for monitoring the extent of binding. Apo-DhXR was excited at 292 nm and emission of tryptophan fluorescence was scanned between 300–375 nm (Fig. S2). […] Intrinsic site-specific binding constants are estimated from the macroscopic binding constants obtained from fitting by removing the statistical factors as in eq (2). [drawing 2] (2)

The target of the next experiment is T1, DhXR D10A mutant (Debaryomyces hansenii, UniProt Q6BLI9, D10A).
T1 sequence (Q6BLI9 1-317 D10A): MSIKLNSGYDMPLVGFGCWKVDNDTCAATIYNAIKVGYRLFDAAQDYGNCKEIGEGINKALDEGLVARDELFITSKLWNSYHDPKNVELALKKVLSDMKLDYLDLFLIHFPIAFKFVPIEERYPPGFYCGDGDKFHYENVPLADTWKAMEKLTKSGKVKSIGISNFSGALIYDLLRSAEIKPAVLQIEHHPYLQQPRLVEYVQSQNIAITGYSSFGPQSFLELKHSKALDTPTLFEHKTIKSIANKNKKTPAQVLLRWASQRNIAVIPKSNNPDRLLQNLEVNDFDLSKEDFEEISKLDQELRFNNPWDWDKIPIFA
Nature of the experiment: Fluorescence quenching titration, ligand binding to DhXR D10A mutant. On the procedure: as §1, §2
(§3) We tested the activity of all mutants and activities were normalized to the activity of wild type DhXR with respect to its D-xylose reducing activity.

The target in another experiment is T2, DhXR D42A mutant (Debaryomyces hansenii, UniProt Q6BLI9, D42A).
T2 sequence (Q6BLI9 1-317 D42A): T1 sequence (Q6BLI9 1-317 D10A)
Nature of the experiment: Fluorescence quenching titration, ligand binding to DhXR D42A mutant. On the procedure: as §1, §2, §3

In a further experiment the target is DhXR H109A mutant (Debaryomyces hansenii, UniProt Q6BLI9, H109A). Nature of the experiment: biochemical. In kind it is binding. On the procedure: as §1, §2, §3
The next experiment deals with DhXR K76A mutant (Debaryomyces hansenii, UniProt Q6BLI9, K76A). Nature of the experiment: biochemical. It counts as binding. On the procedure:
as §1, §2, §3

Another experiment concerns the target DhXR Y47A mutant (Debaryomyces hansenii, UniProt Q6BLI9, Y47A). Nature of the experiment: biochemical. It counts as binding. On the procedure: as §1, §2, §3
In a further experiment the target is T3, DhXR N305A mutant (Debaryomyces hansenii, UniProt Q6BLI9, N305A).
T3 sequence (Q6BLI9 1-317 N305A): T1 sequence (Q6BLI9 1-317 D10A)
Nature of the experiment: Fluorescence quenching titration, ligand binding to DhXR N305A mutant. On the procedure:
as §1, §2, §3

The target in experiment [2] is T4, holo-DhXR (Debaryomyces hansenii, UniProt Q6BLI9). Nature of the experiment: Steady state kinetics of carbonyl substrate reduction by holo-DhXR (A340, NADPH). In kind it is biochemical. Particulars: Km of holoenzyme vs Kd of apoenzyme. On the procedure:
(§4) The xylose reductase activities of recombinant DhXR was determined spectrophotometrically by monitoring the change in A340 upon reduction of NADPH to NADP. The standard assay mixture contained 50 mM KPO4, pH 7.0, 100 mM sugar substrate, 0.3 mM NADPH, 0.18 µM of enzyme. Single point activity studies were performed at 40°C and all reactions were started by the addition of enzyme to a final volume of 0.8 ml (in standard assay condition). […] Errors for the activity assays were calculated from triplicate experiments. The kinetic parameters were determined using a range of substrate concentrations. Here, the reaction was performed at 25°C and assay mixture contained 50 mM KPO4, pH 7.0, 0.15 mM NADPH, 0.18 µM of enzyme and varying substrate concentrations. Steady state kinetics data were fit to Michaelis-Menten model, v = Vmax * [S]/([S]+Km), where Vmax, maximal velocity; Km, Michaelis-Menten constant; S, substrate concentration, and v, initial velocity.
To understand the specificity determining component in catalysis, we studied the steady state kinetics of holo-DhXR towards different carbonyl substrates. […] Therefore, all kinetic data analyzed fitting to Michaelis-Menten model by Non-Linear Least Squares method. (Fig. 4A). Steady state kinetic parameters are also determined for other sugars (table 3, Fig. 4B). […] We compared the Km/Kd ratio as an indicator of net affinity loss for a given substrate (Fig. S5).
In order to further verify that holoenzyme discriminates between substrate and non-substrate sugars, we challenged the catalysis of D-xylose by adding non-substrate sugars during kinetic experiments. […] We studied the kinetics of D-xylose reduction by holo-DhXR in the presence of fixed concentration (∼40 mM) of three sugars (Fig. 4C).

Experiment [3] addresses T4, holo-DhXR. Nature of the experiment: Specific activity of DhXR with 100 mM D-xylose in presence of competing sugars. In kind it is biochemical. The conditions noted are these: 100 mM D-xylose alone, 0 mM competing sugar. On the procedure:
as §4
(§5) Assays were performed at 100 mM D-xylose and concentrations of competing sugars were varied (25 mM to 400 mM). […] Both DhXR and NADPH (20.0 µM) are pre-incubated and fluorescence signal was monitored until no further change. […] It should be noted that D-xylose is the substrate and is very likely to be reduced soon after binding.

Another experiment concerns DhXR-NADPH complex. Nature of the experiment: Fluorescence titration of pre-formed DhXR-NADPH binary complex. It counts as binding, Debaryomyces hansenii. Particulars: DhXR pre-incubated with 20.0 µM NADPH. On the procedure:
as §1, §5

Experiment [4] deals with Xylose Reductase from Debaryomyces hansenii (Debaryomyces hansenii CBS767). Nature of the experiment: SEC; purified DhXR, single peak at 52 mL; column calibrated with ferritin, catalase, aldolase, albumin and ovalbumin; estimated mass ~71 kDa.

As for `O=C[C@H](O)[C@@H](O)[C@H](O)CO` [D-xylose], the Kd in [1] (Kd1,int, wild type apo-DhXR, first site) is ~5.3 mM and 5.3 mM; in [1] (read-out: Kd2,int, wild type apo-DhXR, second site) it was 17 mM and 17.2 mM; on DhXR D10A mutant it was 6.7 ± 1 mM; on DhXR D42A mutant, 5.1 ± 0.6 mM; on DhXR D42A mutant (read-out: Kd2,int, D42A, second site), 47.6 ± 18 mM; at DhXR H109A mutant, 13.3 ± 2 mM. The results for the Kd on DhXR K76A mutant, at DhXR Y47A mutant and on DhXR N305A mutant were 12.8 ± 2 mM, 12.9 ± 2 mM and 6.4 ± 2 mM, respectively. Further, the “ratio of first to second intrinsic binding constant” value in experiment [1] (affinity of first vs second ligand molecule) was approximately 4. In addition, the “Hill coefficient, nH” value in experiment [1] (from logarithmic (Hill) plot) was approximately 0.68. In addition, the “K1,int (intrinsic association constant, first ligand)” value in [1] (wild type apo-DhXR) is recorded as 1.9±0.6×10^2 M^−1. In addition, in experiment [1] (wild type apo-DhXR), the “K2,int (intrinsic association constant, second ligand)” value was 5.8±0.1×10^1 M^−1. Moreover, at holo-DhXR [2], the “Km/Kd ratio (net affinity loss)” value is on record as 12–15 fold. For the same molecule, on holo-DhXR [3], the Specific activity is 72.5 ± 2.4 nmol/min. Also, in the experiment with DhXR-NADPH complex, the “binding to DhXR-NADPH complex (fluorescence signal)” value is “showed further quenching of fluorescence”.

“Xylose Reductase from Debaryomyces hansenii (enzyme)”: the stoichiometry N in experiment [4] was 2.

One may read the stoichiometry N as the number of molecules, sites or subunits per partner or assembly.
